Results on 5 compounds are retold here after USRE50319E1, “Compounds and methods for treating cancer” (Dana-Farber Cancer Institute, Inc., priority 2017, dated 2025).

Counter-ions that a name gives are not always drawn.

One data set addresses POLQ (Homo sapiens, UniProt O75417). The experiment in a line: γ-32P-ATP based radiometric ATPase assay. The note with it: for inhibition of POLQ (ATPase) activity: FIG. 2B radiometric ATPase assay. It is filed as biochemical. The method, then: FIG. 2C is a bar plot showing quantification of the radiometric ATPase assay showing in FIG. 2B. SMARCAL1 was used as a control ATPase to identify inhibitors that show specificity to POLQ.
100 μM novobiocin was used in the assay. MTX=Mitoxantrone; SUR=Suramin sodium salt; NVB=novobiocin; AUR=Aurintricarboxylic acid; VAND=vandetanib (EGFR inhibitor, negative control).

Another data set relates to Alt-EJ repair pathway. The experiment in a line: GFP reporter assay using EJ2 repair substrate (Alt-EJ). It is filed as cell-based. How it is done:
PARP inhibitor and ATM inhibitor were used as positive controls.
(§1) 10 μM concentration of each tested compound was used in the assay. Mitoxantrone and VAND kill cells.
(§2) 50 μM of each tested compound was used in the assay.

For data set [1], the system named is BRCA1-deficient tumor cells. The data set can be described thus: Clonogenic survival assay, BRCA1-deficient tumor cells. It is filed as cell-based. The conditions noted are these: FIG. 4, versus isogenic BRCA1-proficient cell line.
A further data set deals with RAD51 foci. The data set can be described thus: RAD51 foci formation. It is filed as cell-based. The conditions noted are these: FIG. 11.
Data set [2] deals with BRCA1-deficient (HR-deficient) tumor cells. The data set can be described thus: Rapid Cell Titer Glo assay. In kind it is cell-based.
The next data set relates to homologous recombination. The experiment in a line: Homologous recombination repair assay. It is filed as cell-based. How it is done:
as §1, §2

A further data set deals with BRCA1−/− RPE1 cells. The data set can be described thus: Clonogenic survival assay, RPE1 cells. It is filed as cell-based. The note with it: FIGS. 6 and 7.
Data set [3] has as its system RPE1-p53−/− BRCA1−/− cells. The experiment in a line: Apoptosis, Annexin V kit. It is filed as cell-based. The conditions noted are these: FIG. 13, analyzed 4 days after NVB.
The subject of data set [4] is PARP inhibitor (olaparib) resistant RPE1 cells. The data set can be described thus: PARP inhibitor (olaparib) resistant cell lines. It is filed as cell-based. The conditions noted are these: FIG. 10.
The next data set deals with yH2AX foci. The experiment in a line: yH2AX foci formation. It is filed as cell-based. The note with it: FIG. 12.
Another data set addresses POLQ ATPase domain (Homo sapiens, UniProt O75417). The data set can be described thus: Pull-down with novobiocin-conjugated sepharose beads, POLQ. In kind it is binding. The note with it: FIG. 15; novobiocin conjugated to sepharose beads. The source says: FIG. 14 contains an image showing that novobiocin was successfully conjugated to sepharose beads.
The color in the left tube is attributed to the novobiocin bound to the beads.

POLQ, sequence (O75417 whole entry): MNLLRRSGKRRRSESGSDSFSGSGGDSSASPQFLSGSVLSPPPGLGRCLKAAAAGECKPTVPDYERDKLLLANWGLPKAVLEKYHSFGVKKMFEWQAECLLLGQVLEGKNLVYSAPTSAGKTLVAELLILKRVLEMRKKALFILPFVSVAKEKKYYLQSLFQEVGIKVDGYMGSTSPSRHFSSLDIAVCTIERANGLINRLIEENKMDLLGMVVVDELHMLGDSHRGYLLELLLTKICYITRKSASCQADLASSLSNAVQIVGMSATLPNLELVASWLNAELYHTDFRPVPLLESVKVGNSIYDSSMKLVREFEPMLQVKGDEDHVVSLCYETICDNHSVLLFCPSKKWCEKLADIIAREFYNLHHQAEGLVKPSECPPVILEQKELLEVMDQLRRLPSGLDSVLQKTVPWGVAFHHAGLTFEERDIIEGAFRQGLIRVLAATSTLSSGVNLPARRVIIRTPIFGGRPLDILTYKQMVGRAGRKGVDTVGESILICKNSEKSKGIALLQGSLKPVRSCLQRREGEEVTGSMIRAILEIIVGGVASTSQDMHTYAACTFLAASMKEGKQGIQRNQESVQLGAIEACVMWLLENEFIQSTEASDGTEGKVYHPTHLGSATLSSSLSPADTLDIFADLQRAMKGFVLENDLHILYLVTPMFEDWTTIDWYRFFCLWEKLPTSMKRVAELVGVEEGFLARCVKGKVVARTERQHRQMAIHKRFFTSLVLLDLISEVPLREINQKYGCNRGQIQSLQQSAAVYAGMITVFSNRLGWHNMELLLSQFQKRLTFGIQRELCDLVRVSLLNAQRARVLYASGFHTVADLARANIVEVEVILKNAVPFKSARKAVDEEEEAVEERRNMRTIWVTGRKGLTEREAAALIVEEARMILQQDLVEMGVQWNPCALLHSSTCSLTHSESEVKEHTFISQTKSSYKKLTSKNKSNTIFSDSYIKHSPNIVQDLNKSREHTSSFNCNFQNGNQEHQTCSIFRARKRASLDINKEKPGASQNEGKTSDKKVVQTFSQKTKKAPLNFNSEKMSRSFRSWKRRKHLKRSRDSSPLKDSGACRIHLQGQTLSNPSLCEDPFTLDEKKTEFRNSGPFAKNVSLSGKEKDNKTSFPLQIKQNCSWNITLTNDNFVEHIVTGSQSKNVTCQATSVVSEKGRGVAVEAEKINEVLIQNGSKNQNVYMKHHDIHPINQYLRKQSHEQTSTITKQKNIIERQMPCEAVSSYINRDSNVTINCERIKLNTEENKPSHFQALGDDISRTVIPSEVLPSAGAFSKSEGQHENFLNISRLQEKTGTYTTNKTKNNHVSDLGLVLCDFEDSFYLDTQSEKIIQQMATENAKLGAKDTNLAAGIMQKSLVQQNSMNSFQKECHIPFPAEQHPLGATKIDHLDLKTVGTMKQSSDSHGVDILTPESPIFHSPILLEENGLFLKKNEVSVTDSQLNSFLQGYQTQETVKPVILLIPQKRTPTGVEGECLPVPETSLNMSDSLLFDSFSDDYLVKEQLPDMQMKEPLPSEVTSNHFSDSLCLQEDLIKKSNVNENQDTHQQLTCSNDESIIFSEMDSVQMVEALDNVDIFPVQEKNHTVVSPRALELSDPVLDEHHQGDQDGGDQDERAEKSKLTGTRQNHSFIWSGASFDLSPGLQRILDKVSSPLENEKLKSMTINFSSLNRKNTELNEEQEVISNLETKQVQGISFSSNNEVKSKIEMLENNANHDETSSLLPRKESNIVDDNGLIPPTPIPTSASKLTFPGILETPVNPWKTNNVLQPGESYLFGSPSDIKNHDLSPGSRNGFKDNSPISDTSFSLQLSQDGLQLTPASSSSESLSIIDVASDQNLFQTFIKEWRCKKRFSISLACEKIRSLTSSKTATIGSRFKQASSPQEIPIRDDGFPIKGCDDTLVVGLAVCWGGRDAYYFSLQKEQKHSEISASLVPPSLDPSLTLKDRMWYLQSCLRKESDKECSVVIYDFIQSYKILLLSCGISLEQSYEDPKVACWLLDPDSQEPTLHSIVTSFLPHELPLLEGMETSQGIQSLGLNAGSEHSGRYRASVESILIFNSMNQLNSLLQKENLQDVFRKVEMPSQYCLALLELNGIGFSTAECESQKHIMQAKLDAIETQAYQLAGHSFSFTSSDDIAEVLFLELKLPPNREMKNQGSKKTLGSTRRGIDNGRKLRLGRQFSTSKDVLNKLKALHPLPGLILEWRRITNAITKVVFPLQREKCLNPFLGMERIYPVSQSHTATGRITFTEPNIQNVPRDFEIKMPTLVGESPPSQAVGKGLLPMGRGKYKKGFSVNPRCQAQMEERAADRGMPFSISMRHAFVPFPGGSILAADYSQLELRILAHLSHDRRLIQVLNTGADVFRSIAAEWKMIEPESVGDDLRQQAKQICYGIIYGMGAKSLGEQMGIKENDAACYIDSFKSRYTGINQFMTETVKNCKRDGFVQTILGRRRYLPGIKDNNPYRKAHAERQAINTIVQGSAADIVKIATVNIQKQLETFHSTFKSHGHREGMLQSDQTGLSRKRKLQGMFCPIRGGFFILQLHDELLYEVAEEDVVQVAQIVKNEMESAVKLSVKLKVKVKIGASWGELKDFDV
POLQ ATPase domain, sequence (O75417 102-554 limits assumed): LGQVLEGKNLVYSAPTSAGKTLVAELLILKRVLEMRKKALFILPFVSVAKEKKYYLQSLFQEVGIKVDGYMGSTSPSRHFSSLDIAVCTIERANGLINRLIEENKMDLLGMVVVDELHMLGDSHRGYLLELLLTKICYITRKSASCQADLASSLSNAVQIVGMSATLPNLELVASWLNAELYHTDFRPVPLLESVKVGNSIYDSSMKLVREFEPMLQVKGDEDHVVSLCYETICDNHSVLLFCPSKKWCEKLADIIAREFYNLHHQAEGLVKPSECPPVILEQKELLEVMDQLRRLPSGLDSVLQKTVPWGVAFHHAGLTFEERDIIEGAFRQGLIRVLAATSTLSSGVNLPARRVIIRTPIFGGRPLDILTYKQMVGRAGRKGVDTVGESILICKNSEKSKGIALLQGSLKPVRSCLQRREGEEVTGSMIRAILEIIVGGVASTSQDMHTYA

In the case of `O=C1c2c(O)ccc(O)c2C(=O)c2c(NCCNCCO)ccc(NCCNCCO)c21` [Mitoxantrone], the “inhibition of POLQ (ATPase) activity” value at POLQ was “inhibited POLQ activity”. Moreover, the “cell killing in the repair assay” value is given as “kill cells” in the data set with Alt-EJ repair pathway (FIG. 8, 10 μM) and “killed all cells” with Alt-EJ repair pathway (FIG. 9, 50 μM).

Take `Cc1ccc(C(=O)Nc2ccc(S(=O)(=O)O)c3cc(S(=O)(=O)O)cc(S(=O)(=O)O)c23)cc1NC(=O)c1cccc(NC(=O)Nc2cccc(C(=O)Nc3cc(C(=O)Nc4ccc(S(=O)(=O)O)c5cc(S(=O)(=O)O)cc(S(=O)(=O)O)c45)ccc3C)c2)c1` [S, Suramin sodium salt]: the “inhibition of POLQ (ATPase) activity” value against POLQ is “inhibited POLQ activity”.

For `COc1cc2c(Nc3ccc(Br)cc3F)ncnc2cc1OCC1CCN(C)CC1` [VAND, vandetanib], the “cell killing in the repair assay” value is given as “kill cells” with Alt-EJ repair pathway (FIG. 8, 10 μM) and “killed all cells” with Alt-EJ repair pathway (FIG. 9, 50 μM).

On to `CO[C@@H]1[C@@H](OC(N)=O)[C@@H](O)[C@H](Oc2ccc3c(O)c(NC(=O)c4ccc(O)c(CC=C(C)C)c4)c(=O)oc3c2C)OC1(C)C` [novobiocin], for which the “selective killing of BRCA1-deficient tumor cells” value in data set [1] is listed as “selectively kills the BRCA1-deficient tumor cells”; in [1] (listed as Novobiocin), “selectively kills BRCA1-deficient tumor cells”. Further, in the data set on RAD51 foci, the RAD51 foci formation entry was “induces RAD51 and yH2AX foci formation”. In addition, the “selective killing of BRCA1-deficient (HR-deficient) tumor cells” value in data set [2] (FIG. 3) is listed as “selectively kills BRCA1-deficient (HR-deficient) tumor cells”; in data set [2] (FIG. 3, listed as Novobiocin), “selectively kills HR-deficient cells as strongly as PARP inhibitor”. Also, the figures for the “inhibition of POLQ (ATPase) activity” value against POLQ (listed as N) and against POLQ (listed as Novobiocin) were “inhibited POLQ activity” and “inhibits the ATPase of POLQ”, respectively. Besides, the “specificity to POLQ” value on POLQ (FIG. 2C, SMARCAL1 used as control ATPase) is “showed some specificity to POLQ”. Besides, the “inhibition of ATPase activity of POLQ” value against POLQ (FIG. 5, 32P-based ATPase activity assay, 100 μM novobiocin) is given as “specifically inhibits ATPase activity of POLQ”. Further, on POLQ (versus ATPase activity of SMARCA or CHD1), the “POLQ ATPase inhibition compared with related ATPases” value is recorded as “inhibits the POLQ ATPase more strongly than it inhibits the ATPase activity of SMARCA or CHD1”. In the data set with Alt-EJ repair pathway (FIG. 2D, EJ2 repair substrate GFP reporter), the “inhibition of Alt-EJ” value is recorded as “inhibited Alt-EJ”. The “inhibition of alternative end-joining” value in the data set with Alt-EJ repair pathway (FIG. 8, 10 μM) is reported as “inhibits alternative end-joining”; in the data set with Alt-EJ repair pathway (FIG. 9, 50 μM), “inhibits alternative end-joining”. Also, the “inhibition of homologous recombination” value in the data set on homologous recombination (FIG. 8, 10 μM) is “not homologous recombination”; with homologous recombination (FIG. 9, 50 μM), “not homologous recombination”. Also, the “specific killing of BRCA1−/− RPE1 cells” value in the data set with BRCA1−/− RPE1 cells is “specifically kills BRCA1−/− RPE1 cells”. Moreover, in [3], the induction of apoptosis result is “induces apoptosis specifically in RPE1-p53−/− BRCA1−/− cells”. Further, the “killing of PARP inhibitor resistant RPE1 cells” value in [4] is reported as “kills RPE1 cells that are resistant to the PARP inhibitor”. Moreover, the yH2AX foci formation entry in the data set on yH2AX foci is “induces RAD51 and yH2AX foci formation”. For the same compound, on POLQ ATPase domain, the “binding / pull-down of POLQ ATPase domain” value is given as “specifically binds to POLQ ATPase domain”.

Regarding `O=C(c1cc(Cc2n[nH]c(=O)c3ccccc23)ccc1F)N1CCN(C(=O)C2CC2)CC1` [olaparib], the “selective killing of BRCA1-deficient (HR-deficient) tumor cells” value in data set [2] (FIG. 3) is “selectively kills BRCA1-deficient (HR-deficient) tumor cells”.
